In publication PMC9257752, “Intestinal Absorption of FITC-Dextrans and Macromolecular Model Drugs in the Rat Intestinal Instillation Model” (Molecular Pharmaceutics, 2022):
Numbered stars: 1 amine (or outer) side, 2 acyl side, 3 side chain; on linkers, the order of the positions; unused ones are H or OH. Square brackets hold non-standard residues; d marks the D form. Side chains are listed from the residue outwards. Peptide text beside a SMILES is read from it. * marks the point of attachment. γGlu = O=C(O)[C@H](CCC(=O)[*:2])N[*:1]; αMeF = C[C@](N)(Cc1ccccc1)C(=O)O; αMeK = C[C@](N)(CCCCN)C(=O)O; Lauroyl = CCCCCCCCCCCC(=O)*; αMeS = C[C@](N)(CO)C(=O)O; AEEA = NCCOCCOCC(=O)O; Aib = CC(C)(N)C(=O)O

Experiments:
pancreatin = test system: pancreatin; parameters: method as in PMID 34795324; conditions: simulated intestinal fluid containing pancreatin, over a 60 min period; cited from earlier work
[1] = dogs; cited from earlier work
Description: MEDI7219 is a glucagon-like peptide 1 (GLP-1) receptor agonist drug candidate developed by AstraZeneca.[10] The peptide was designed for oral delivery and has natural amino acid and α-methyl amino acid substitutions to protect against peptidasesin the gastrointestinal tract. The peptide backbone has two lipid side chains that can bind to plasma proteins, thereby prolonging the circulation half-life of the peptide. […] The calculated pI is 3.8, giving the peptide a charge of −6.2 at pH 7.4. The molecular weight of MEDI7219 is 4353, ...

[2] = Rat intestinal instillation model (intraduodenal administration, plasma pharmacokinetics, deconvolution); conditions: for Proportion of total absorption (120 min) occurring in interval 0–20 min / Proportion of total absorption (120 min) occurring in interval 20–40 min / Proportion of total absorption (120 min) occurring in interval 40–60 min / Proportion of total absorption (120 min) occurring in interval 60–80 min / Proportion of total absorption (120 min) occurring in interval 80–100 min / Proportion of total absorption (120 min) occurring in interval 100–120 min: average ± SD; for Cmax / Tmax: male, Wistar Han, rat, plasma; for Cmax: pH 6.5, Cmax, MEDI7219 1.0 mg, PEP12210 5.0 mg, mean ± SD (CV%); for Tmax: pH 6.5, Tmax
Description: Blank FaSSIF was prepared by dissolving 2.22 g of maleic acid, 1.39 g of sodium hydroxide, and 4.01 g of sodium chloride in Milli-Q water and adjusting the pH to 6.5 and volume to 1000 mL. C10 solutions were prepared at 50 or 300 mM C10 in blank FaSSIF and pH-adjusted to 6.5 by the addition of 2 M HCl. Blank FaSSIF solutions containing 0–300 mM C10 were stored at room temperature (RT) and used within 30 days. The model compounds were dissolved in blank FaSSIF with or without C10 the day before the absorption study and stored at +4 °C overnight. […] All IV formulations were sterile filtered into autoclaved injection vials and stored at +4 °C.
Upon arrival at the animal facility, the rats underwent an acclimatization period of 5 days with food and water ad libitum.
Briefly, anesthesia was induced with isoflurane after which the animal was moved to a preheated preparatory table. Fur was shaved from the throat to the lower abdomen and the shaved area was disinfected with a medicinal sponge containing chlorhexidine. The rat was draped in plastic foil and transferred to a preheated operating table where anesthesia was continued throughout the entire study using 3% isoflurane carried in an air/oxygen mixture. A polyurethane catheter was placed in the left carotid artery to allow for blood sampling, as well as blood pressure and heart rate monitoring. A midline incision was made in the abdomen, the duodenum was located and a catheter was placed in the common bile duct to avoid bile secretion into the duodenum. […] The stomach was punctured approximately 1 cm proximal to the pyloric sphincter with a 20G needle. A soft polyurethane catheter with a rounded tip was inserted into the small intestine via the gastric incision so that the tip of the catheter was positioned approximately 4 cm distal to the pylorus. The intestinal catheter was secured to the stomach with a suture and a ligature was placed at the pylorus to prevent backflow of formulation into the stomach and transit of gastric content into the duodenum. A thermometer was placed in the abdominal cavity and the abdomen was closed with stitches. A heating lamp coupled to the thermometer via a thermostat maintained the animal at 37 °C. The surgery was followed by a 30 min recovery period to allow the animal to regain normal temperature and blood pressure.
The liquid formulations were equilibrated to room temperature under magnetic stirring for 2 h prior to administration. Intestinal bolus administrations were performed over approximately 5 s via the intestinal catheter. […] The C10 doses were 7.8 mg for administrations with 50 mM C10 and 47 mg for 300 mM C10. Five to six replicates were performed for each administration group. […] Blood plasma was separated by immediately centrifuging the blood samples at +4 °C and 10 000g for 4 min. Plasma samples were transferred to new tubes and stored at −80 °C until analysis.
The animals receiving IV administration were handled and prepared in the same way as the animals receiving intestinal administration up until the placement of the carotid catheter. As no abdominal surgery was performed, a thermometer was introduced rectally.

[3] = 0 mM C10, numerical deconvolution, n = 5–6 (PEP12210 n = 2)
[4] = 50 mM C10, numerical deconvolution, n = 5–6
[5] = 300 mM C10, numerical deconvolution, n = 5–6

Compound: CCCCCCCCCCCC(=O)N[C@@H](CCC(=O)NCCOCCOCC(=O)NCCOCCOCC(=O)NCCCC[C@H](NC(=O)[C@H](C)NC(=O)[C@@H](NC(=O)[C@](C)(Cc1ccccc1)NC(=O)[C@H](CCC(=O)O)NC(=O)[C@](C)(CCCCN)NC(=O)[C@H](C)NC(=O)[C@H](C)NC(=O)[C@H](CCC(=O)O)NC(=O)CNC(=O)[C@H](CCC(=O)O)NC(=O)[C@H](CC(C)C)NC(=O)[C@H](CCCCNC(=O)COCCOCCNC(=O)COCCOCCNC(=O)CC[C@H](NC(=O)CCCCCCCCCCC)C(=O)O)NC(=O)[C@H](CO)NC(=O)[C@](C)(CO)NC(=O)[C@@H](NC(=O)[C@H](CC(=O)O)NC(=O)[C@H](CO)NC(=O)[C@@H](NC(=O)[C@](C)(Cc1ccccc1)NC(=O)[C@H](CO)NC(=O)CNC(=O)[C@H](CCC(=O)O)NC(=O)C(C)(C)NC(=O)[C@@H](N)Cc1c[nH]cn1)[C@@H](C)O)C(C)C)[C@@H](C)CC)C(=O)N[C@H](C(=O)N[C@H](C(=O)N[C@@H](CCC(=O)O)C(=O)NCC(=O)NCC(N)=O)C(C)C)C(C)C)C(=O)O [MEDI7219] (H-H[Aib]EGS[αMeF]TSDV[αMeS]SK([AEEA-AEEA-γGlu-Lauroyl])LEGEAA[αMeK]E[αMeF]IAK([AEEA-AEEA-γGlu-Lauroyl])VVEGG-NH2)
- Proportion of peptide remaining intact (pancreatin): 90%
- Half-life following oral administration [1]: 9.8 h
- Proportion of total absorption (120 min) occurring in interval 0–20 min [2, 3]: 11% ± 2.8%
- Proportion of total absorption (120 min) occurring in interval 20–40 min [2, 3]: 12% ± 2.9%
- Proportion of total absorption (120 min) occurring in interval 40–60 min [2, 3]: 22% ± 2.5%
- Proportion of total absorption (120 min) occurring in interval 60–80 min [2, 3]: 15% ± 1.2%
- Proportion of total absorption (120 min) occurring in interval 80–100 min [2, 3]: 18% ± 2.5%
- Proportion of total absorption (120 min) occurring in interval 100–120 min [2, 3]: 22% ± 4.9%
- Proportion of total absorption (120 min) occurring in interval 0–20 min [2, 4]: 72% ± 3.6%
- Proportion of total absorption (120 min) occurring in interval 20–40 min [2, 4]: 16% ± 2.6%
- Proportion of total absorption (120 min) occurring in interval 40–60 min [2, 4]: 4.5% ± 1.7%
- Proportion of total absorption (120 min) occurring in interval 60–80 min [2, 4]: 1.8% ± 5.5%
- Proportion of total absorption (120 min) occurring in interval 80–100 min [2, 4]: 2.1% ± 2.6%
- Proportion of total absorption (120 min) occurring in interval 100–120 min [2, 4]: 3.6% ± 4.2%
- Proportion of total absorption (120 min) occurring in interval 0–20 min [2, 5]: 25% ± 5.1%
- Proportion of total absorption (120 min) occurring in interval 20–40 min [2, 5]: 20% ± 2.6%
- Proportion of total absorption (120 min) occurring in interval 40–60 min [2, 5]: 24% ± 2.3%
- Proportion of total absorption (120 min) occurring in interval 60–80 min [2, 5]: 13% ± 3.5%
- Proportion of total absorption (120 min) occurring in interval 80–100 min [2, 5]: 10% ± 3.1%
- Proportion of total absorption (120 min) occurring in interval 100–120 min [2, 5]: 7.8% ± 4.0%
- Cmax ([2]; 50 mM C10, blank FaSSIF pH 6.5, dose FD10 10 mg, n = 5–6): 440 nM
- Cmax ([2]; 300 mM C10, blank FaSSIF pH 6.5, dose FD10 10 mg, n = 5–6): 1400 nM
- Tmax ([2]; 0 mM C10, blank FaSSIF pH 6.5, median (min–max), n = 5–6 (PEP12210 n = 2)): 2 h
- Tmax ([2]; 50 mM C10, blank FaSSIF pH 6.5, median (min–max), n = 5–6): 0.333 h
- Tmax ([2]; 300 mM C10, blank FaSSIF pH 6.5, median (min–max), n = 5–6): 1.5 h
